{"source": "patent US4582821A", "about": "“Inhibition of cyclic nucleotide independent protein kinases” (E. I. Du Pont de Nemours and Company, priority 1983, dated 1986)", "key": {"[1]": {"tested_on": "A-431 plasma membrane extracts (EGF-mediated protein phosphorylation)", "assay": "Protein phosphorylation in solubilized A-431 plasma membrane extracts, with or without EGF", "type": "biochemical, human", "procedure,_shortened": "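Triton X-100-solubilized A-431 plasma membranes (15-150 μg protein) in 20 mM Hepes pH 7.4 with 1 mM MnCl2, ± 100 ng EGF, preincubated with compound 10 min at ~23°, then 10 min at 0°. Phosphorylation started with 15 μM [γ-32P]ATP, stopped after 3 min at 0°; TCA-precipitated radioactivity counted.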"}, "[2]": {"tested_on": "pp60^src", "assay": "Immune complex phosphorylation by pp60src immunoprecipitates of RSV-transformed cells", "type": "biochemical, Rous sarcoma virus (RSV)", "details": "250 nmoles per mg protein", "experimental": "In this experiment, Boc-LeuCH2 Br was tested as an inhibitor of pp60^src and p130^fps, the tyrosine-specific protein kinases encoded by the transforming genes of RSV and Fujinami sarcoma virus, respectively.\nThese viral gene products were partially purified by preparation of immune complexes substantially according to the technique described by Collett et al., Proc. Nat. Acad. Sci. USA 75:2021 (1978). In this procedure, immunoprecipitates are prepared by incubation of extracts of virus-transformed cells with tumor-bearing rabbit serum (TBR) and Staphylococcus protein A suspension (for RSV-transformed cells) or anti-gag serum and Staphylococcus protein A suspension (for FSV-transformed cells).\nAssay mixtures contained, in a final volume of 70 μL, 100 μg of immune complex protein, 20 mM Hepes, pH 7.4, and 1 mM MnCl2. Phosphorylation was initiated by addition of 1 μM (4 μCi) [γ-^32 P] ATP. After 10 minutes at about 23°, reactions were terminated by pipetting 20 μL aliquots of assay mixture onto 2×2 cm squares of Whatman 3 MM filter paper, which were immediately suspended in 10% TCA/10 mM sodium pyrophosphate. Test mixtures contained 250 nmoles Boc-LeuCH2 Br per mg protein. Controls for the immunoprecipitation procedure were prepared by immunoprecipitating transformed cell extracts with normal serum. Values in parentheses represent specific phosphorylation induced by virus-transformed cells."}, "[3]": {"target": "T1, p130^fps (UniProt P00530+P03323)", "T1 construct": "anti-gag serum and Staphylococcus protein A suspension (for FSV-transformed cells); viral gag-derived N-terminal portion (natural gag-fps fusion); expressed in transfected cells; immune complex with anti-gag serum and Staphylococcus protein A", "assay": "Casein phosphorylation by p130fps immunoprecipitates", "type": "biochemical, Fujinami sarcoma virus (FSV)", "details": "for Casein Phosphorylation: 1 mg/mL casein", "experimental": "In a related experiment, the capacity of Boc-LeuCH2 Br to inhibit phosphorylation of casein by p130^fps was determined. These tests were conducted substantially as described above, except 1 mg/mL casein was added to assay mixtures as a substrate, and reactions were terminated by addition of 2.5 mM unlabeled ATP and immediate cooling to 0°. Phosphorylated casein was separated from immunoprecipitate suspensions by centrifugation at 3,000 xg for 3 minutes. The resulting pellets were resuspended in 70 μL of 10 mM Hepes, pH 7.5, and 20 μL aliquots were pipetted onto filter paper squares as previously described. […]"}, "[4]": {"tested_on": "lymphoma cell line MOLT-4", "assay": "Tumor cell line growth inhibition, MOLT-4", "type": "cell-based", "experimental": "(§1) In this series of experiments, the tumor cell growth inhibitory capacity of various peptide halomethyl ketones was tested against lymphoma cell lines YAC-1 and MOLT-4, and against an erythroleukemia cell line, K-562. The lymphoma cell line YAC-1 is described by Kiessling, et al., Eur. J. Immunol. 5:112 (1975), and MOLT-4 is described by Minowada, et al., J. Natl. Cancer Inst. 49:891 (1972) and Nilsson, et al., Int. J. Cancer 15:321 (1975). The erythroleukemia cell line K-562 is described by Lozzio, et al., Leuk. Res. 3:363 (1979). In these experiments, cells were grown on standard media as 10 mL suspension cultures. Initial cell density was 10^5 cells/mL. At day 0, test compounds were introduced in ethanol; control cultures received an equal volume of ethanol. Cells were counted at the times indicated."}, "[5]": {"tested_on": "erythroleukemia cell line K-562", "assay": "Tumor cell line growth inhibition, K-562", "type": "cell-based", "experimental": "as §1"}}, "data": [{"compound": "CC(C)CC(NC(=O)OC(C)(C)C)C(=O)CBr", "note": "(centres unmarked) [Boc-LeuCH2 Br]", "values": [{"measurement": "% inhibition, EGF Added", "setting": "[1]; 400 nmol/mg protein", "result": 65, "unit": "%"}, {"measurement": "EGF Added (pmol 32P incorporated/min/mg protein)", "setting": "[1]; 400 nmol/mg protein, control 20.2", "result": "7.0 pmol^32 P incorporated/min/mg"}, {"measurement": "% inhibition, EGF Added", "setting": "[1]; 477 nmol/mg protein", "result": 72, "unit": "%"}, {"measurement": "EGF Added (pmol 32P incorporated/min/mg protein)", "setting": "[1]; 477 nmol/mg protein, control 96.2", "result": "27.4 pmol^32 P incorporated/min/mg"}, {"measurement": "% inhibition, No EGF Added", "setting": "[1]; 400 nmol/mg protein", "result": 69, "unit": "%"}, {"measurement": "No EGF Added (pmol 32P incorporated/min/mg protein)", "setting": "[1]; 400 nmol/mg protein, control 7.3", "result": "2.3 pmol^32 P incorporated/min/mg"}, {"measurement": "% inhibition, No EGF Added", "setting": "[1]; 477 nmol/mg protein", "result": 74, "unit": "%"}, {"measurement": "No EGF Added (pmol 32P incorporated/min/mg protein)", "setting": "[1]; 477 nmol/mg protein, control 21.6", "result": "5.6 pmol^32 P incorporated/min/mg"}, {"measurement": "Immune Complex Phosphorylation", "setting": "[2]; pp60 + control serum, no inhibitor 7872", "result": 7516, "unit": "cpm"}, {"measurement": "Immune Complex Phosphorylation, specific phosphorylation (in parentheses)", "setting": "[2]; pp60src + TBR serum, no inhibitor 5112", "result": 3202, "unit": "cpm"}, {"measurement": "Immune Complex Phosphorylation", "setting": "[2]; pp60src + TBR serum, no inhibitor 12984", "result": 10718, "unit": "cpm"}, {"measurement": "Casein Phosphorylation", "setting": "[3]; p130fps + anti-gag serum, no inhibitor 4442", "result": 618, "unit": "cpm"}, {"measurement": "Casein Phosphorylation", "setting": "[3]; p130fps + control serum, no inhibitor 326", "result": 226, "unit": "cpm"}, {"measurement": "Percent Inhibition", "setting": "[3]; casein-phosphorylating activity of p130fps, concentration not given", "result": 63, "unit": "%"}, {"measurement": "% Growth Relative to Control Cultures", "setting": "[4]; 0.4 μg/mL, day 2", "result": 66, "unit": "%"}, {"measurement": "% Growth Relative to Control Cultures", "setting": "[4]; 0.4 μg/mL, day 3", "result": 84, "unit": "%"}, {"measurement": "% Growth Relative to Control Cultures", "setting": "[4]; 0.4 μg/mL, day 4", "result": 67, "unit": "%"}, {"measurement": "% Growth Relative to Control Cultures", "setting": "[4]; 2.0 μg/mL, day 2", "result": 29, "unit": "%"}, {"measurement": "% Growth Relative to Control Cultures", "setting": "[4]; 2.0 μg/mL, day 3", "result": 31, "unit": "%"}, {"measurement": "% Growth Relative to Control Cultures", "setting": "[4]; 2.0 μg/mL, day 4", "result": 21, "unit": "%"}, {"measurement": "% Growth Relative to Control Cultures", "setting": "[4]; 2.0 μg/mL, day 7", "result": 74, "unit": "%"}, {"measurement": "% Growth Relative to Control Cultures", "setting": "[4]; 10. μg/mL, day 1", "result": 49, "unit": "%"}, {"measurement": "% Growth Relative to Control Cultures", "setting": "[4]; 10. μg/mL, day 2", "result": 16, "unit": "%"}, {"measurement": "% Growth Relative to Control Cultures", "setting": "[4]; 10. μg/mL, day 3", "result": 14, "unit": "%"}, {"measurement": "% Growth Relative to Control Cultures", "setting": "[4]; 10. μg/mL, day 4", "result": 9, "unit": "%"}, {"measurement": "% Growth Relative to Control Cultures", "setting": "[4]; 10. μg/mL, day 7", "result": 14, "unit": "%"}, {"measurement": "% Growth Relative to Control Cultures", "setting": "[5]; 0.4 μg/mL, day 3", "result": 70, "unit": "%"}, {"measurement": "% Growth Relative to Control Cultures", "setting": "[5]; 0.4 μg/mL, day 7", "result": 85, "unit": "%"}, {"measurement": "% Growth Relative to Control Cultures", "setting": "[5]; 2.0 μg/mL, day 1", "result": 53, "unit": "%"}, {"measurement": "% Growth Relative to Control Cultures", "setting": "[5]; 2.0 μg/mL, day 2", "result": 22, "unit": "%"}, {"measurement": "% Growth Relative to Control Cultures", "setting": "[5]; 2.0 μg/mL, day 3", "result": 19, "unit": "%"}, {"measurement": "% Growth Relative to Control Cultures", "setting": "[5]; 2.0 μg/mL, day 4", "result": 16, "unit": "%"}, {"measurement": "% Growth Relative to Control Cultures", "setting": "[5]; 2.0 μg/mL, day 7", "result": 69, "unit": "%"}, {"measurement": "% Growth Relative to Control Cultures", "setting": "[5]; 10. μg/mL, day 1", "result": 33, "unit": "%"}, {"measurement": "% Growth Relative to Control Cultures", "setting": "[5]; 10. μg/mL, day 2", "result": 22, "unit": "%"}, {"measurement": "% Growth Relative to Control Cultures", "setting": "[5]; 10. μg/mL, day 3", "result": 7, "unit": "%"}, {"measurement": "% Growth Relative to Control Cultures", "setting": "[5]; 10. μg/mL, day 4", "result": 17, "unit": "%"}, {"measurement": "% Growth Relative to Control Cultures", "setting": "[5]; 10. μg/mL, day 7", "result": 13, "unit": "%"}]}]}
